Assay results as given in publication PMC10066365, “Nemacol is a small molecule inhibitor of C. elegans vesicular acetylcholine transporter with anthelmintic potential” (Nature Communications, 2023).
Values joined by “and” are separate entries in the source; they are usually repeats but may differ in a detail not shown here. Identical values can stand only once. Like-named read-outs stand apart in the source and are kept apart here.

Assays:
C. elegans = C. elegans motor phenotype scoring on solid media (Punc/jerky-unc, coiled, paralyzed), wild-type young adults; type: in vivo, Caenorhabditis elegans; settings: for any phene (mean % fraction of young adults exhibiting any phenotype: coiled, jerky-Unc or paralyzed): one hour, mean of three biological replicates; for EC50: Caenorhabditis elegans, read-out: C. elegans - motor disruption EC50
Pristionchus pacificus = Pristionchus pacificus motor disruption dose-response on solid media, 1 h; settings: for mean % any phene (coiled, jerky-Unc or paralyzed): Pristionchus pacificus young adults, mean of three biological replicates; for EC50: Pristionchus pacificus, 1 h, read-out: P. pacificus motor disruption EC50; for rep 1 atypical locomotion / rep 1 coiled / rep 1 no phene / rep 1 paralyzed / rep 2 atypical locomotion / rep 2 coiled / rep 2 no phene / rep 2 paralyzed: count of 20 animals per trial, one hour
[1] = test system: Dirofilaria immitis microfilariae; assay: Dirofilaria immitis microfilariae immobility assay (DiroImager, 72 h); settings: for % effect (motility), DIROIM MF: Dirofilaria immitis microfilariae
How it was run: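 Motility read after 72 h drug exposure with an image-based high-throughput plate imager, 1% DMSO medium serving as negative control. Missouri-isolate microfilariae, roughly 250 per well, freshly purified and cultured in supplemented RPMI 1640.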

[2] = test system: Dirofilaria immitis L3/L4; assay: Dirofilaria immitis L3/L4 motility assay (DiroImager, 72 h); settings: Dirofilaria immitis L4
[3] = 3.75uM, third c14 line of each analog
[4] = 15uM, second c14 line of each analog
[5] = 60uM, first c14 line of each analog
[6] = any motor phenotype after 1 h on solid media, ± 95% CI
[7] = conc 3.75, observed at one hour

SMILES: N#Cc1ccc(N2CCN(CC3CCCC3)CC2)cc1 [Nemacol-27, 4-(4-(cyclopentylmethyl)piperazin-1-yl)benzonitrile]
- any phene (mean % fraction of young adults exhibiting any phenotype: coiled, jerky-Unc or paralyzed) (C. elegans; [3]): 0.8333%
- any phene (mean % fraction of young adults exhibiting any phenotype: coiled, jerky-Unc or paralyzed) (C. elegans; [4]): 29.1667%
- any phene (mean % fraction of young adults exhibiting any phenotype: coiled, jerky-Unc or paralyzed) (C. elegans; [5]): 91.3333%
- EC50 (C. elegans; [6]): 21.9 ± 8.2 µM
- mean % any phene (coiled, jerky-Unc or paralyzed) (Pristionchus pacificus; [7]): 9.167% and 5%
- mean % any phene (coiled, jerky-Unc or paralyzed) (Pristionchus pacificus; conc 15, observed at one hour): 46.6667% and 3.333%
- mean % any phene (coiled, jerky-Unc or paralyzed) (Pristionchus pacificus; conc 60, observed at one hour): 88.3333%
- EC50 (Pristionchus pacificus): 16.4 ± 3.6 µM
- % effect (motility), DIROIM MF ([1]; 0.016 µM): 0%
- % effect (motility), DIROIM MF ([1]; 0.08 µM): 0%
- % effect (motility), DIROIM MF ([1]; 0.4 µM): 0%
- % effect (motility), DIROIM MF ([1]; 2 µM): 0%
- % effect (motility), DIROIM MF ([1]; 10 µM): 0%
- % effect (motility), DIROIM L4 ([2]; 2 µM): 0%
- % effect (motility), DIROIM L4 ([2]; 10 µM): 10%
- % effect (motility), DIROIM L4 ([2]; 50 µM): 15%

SMILES: Cc1cccc(CN2CCN(c3ccc([N+](=O)[O-])cc3)CC2)c1 [Nemacol-40]
- any phene (mean % fraction of young adults exhibiting any phenotype: coiled, jerky-Unc or paralyzed) (C. elegans; [3]): 5%
- any phene (mean % fraction of young adults exhibiting any phenotype: coiled, jerky-Unc or paralyzed) (C. elegans; [4]): 14.1667%
- any phene (mean % fraction of young adults exhibiting any phenotype: coiled, jerky-Unc or paralyzed) (C. elegans; [5]): 37.5%
- EC50 (C. elegans; 1 h): > 60 µM
- mean % any phene (coiled, jerky-Unc or paralyzed) (Pristionchus pacificus; [7]): 5%
- mean % any phene (coiled, jerky-Unc or paralyzed) (Pristionchus pacificus; conc 15, observed at one hour): 4.167%
- mean % any phene (coiled, jerky-Unc or paralyzed) (Pristionchus pacificus; conc 60, observed at one hour): 11.9444%
- EC50 (Pristionchus pacificus): > 60 µM
- % effect (motility), DIROIM MF ([1]; 0.016 µM): 0%
- % effect (motility), DIROIM MF ([1]; 0.08 µM): 0%
- % effect (motility), DIROIM MF ([1]; 0.4 µM): 0%
- % effect (motility), DIROIM MF ([1]; 2 µM): 0%
- % effect (motility), DIROIM MF ([1]; 10 µM): 40%
- EC50 ([1]; Dirofilaria immitis, 72 h, read-out: Dirofilaria immitis filariae EC50): 10.7 µM
- % effect (motility), DIROIM L4 ([2]; 2 µM): 0%
- % effect (motility), DIROIM L4 ([2]; 10 µM): 10%
- % effect (motility), DIROIM L4 ([2]; 50 µM): 100%

SMILES: CC1CCC(N2CCN(c3ccc(Cl)cc3)CC2)C1 (stereo not shown) [Nemacol-44]
- any phene (mean % fraction of young adults exhibiting any phenotype: coiled, jerky-Unc or paralyzed) (C. elegans; [3]): 80%
- any phene (mean % fraction of young adults exhibiting any phenotype: coiled, jerky-Unc or paralyzed) (C. elegans; [4]): 100%
- any phene (mean % fraction of young adults exhibiting any phenotype: coiled, jerky-Unc or paralyzed) (C. elegans; [5]): 100%
- EC50 (C. elegans; [6]): 3.4 µM
- mean % any phene (coiled, jerky-Unc or paralyzed) (Pristionchus pacificus; [7]): 63.3333%
- mean % any phene (coiled, jerky-Unc or paralyzed) (Pristionchus pacificus; conc 15, observed at one hour): 90.7456%
- mean % any phene (coiled, jerky-Unc or paralyzed) (Pristionchus pacificus; conc 60, observed at one hour): 100%
- EC50 (Pristionchus pacificus): 2.5 ± 1 µM
- rep 1 atypical locomotion (Pristionchus pacificus; conc 3.75): 3
- rep 1 coiled (Pristionchus pacificus; conc 3.75): 0
- rep 1 no phene (Pristionchus pacificus; conc 3.75): 17
- rep 1 paralyzed (Pristionchus pacificus; conc 3.75): 0
- rep 2 atypical locomotion (Pristionchus pacificus; conc 3.75): 10
- rep 2 coiled (Pristionchus pacificus; conc 3.75): 8
- rep 2 no phene (Pristionchus pacificus; conc 3.75): 2
- rep 2 paralyzed (Pristionchus pacificus; conc 3.75): 0
- rep 1 atypical locomotion (Pristionchus pacificus; conc 15): 13
- rep 1 coiled (Pristionchus pacificus; conc 15): 7
- rep 1 no phene (Pristionchus pacificus; conc 15): 0
- rep 1 paralyzed (Pristionchus pacificus; conc 15): 0
- rep 2 atypical locomotion (Pristionchus pacificus; conc 15): 0
- rep 2 coiled (Pristionchus pacificus; conc 15): 14
- rep 2 no phene (Pristionchus pacificus; conc 15): 0
- rep 2 paralyzed (Pristionchus pacificus; conc 15): 6
- rep 1 atypical locomotion (Pristionchus pacificus; conc 60): 2
- rep 1 coiled (Pristionchus pacificus; conc 60): 5
- rep 1 no phene (Pristionchus pacificus; conc 60): 0
- rep 1 paralyzed (Pristionchus pacificus; conc 60): 13
- rep 2 atypical locomotion (Pristionchus pacificus; conc 60): 1
- rep 2 coiled (Pristionchus pacificus; conc 60): 7
- rep 2 no phene (Pristionchus pacificus; conc 60): 0
- rep 2 paralyzed (Pristionchus pacificus; conc 60): 12
- % effect (motility), DIROIM MF ([1]; 0.016 µM): 0%
- % effect (motility), DIROIM MF ([1]; 0.08 µM): 0%
- % effect (motility), DIROIM MF ([1]; 0.4 µM): 0%
- % effect (motility), DIROIM MF ([1]; 2 µM): 0%
- % effect (motility), DIROIM MF ([1]; 10 µM): 0%
- % effect (motility), DIROIM L4 ([2]; 2 µM): 0%
- % effect (motility), DIROIM L4 ([2]; 10 µM): 0%
- % effect (motility), DIROIM L4 ([2]; 50 µM): 10%

SMILES: FC(F)(F)c1cccc(N2CCN(CC3CC4C=CC3C4)CC2)c1 (stereo not shown) [Nemacol-47]
- any phene (mean % fraction of young adults exhibiting any phenotype: coiled, jerky-Unc or paralyzed) (C. elegans; [3]): 34.1667%
- any phene (mean % fraction of young adults exhibiting any phenotype: coiled, jerky-Unc or paralyzed) (C. elegans; [4]): 81.6667%
- any phene (mean % fraction of young adults exhibiting any phenotype: coiled, jerky-Unc or paralyzed) (C. elegans; [5]): 100%
- EC50 (C. elegans; [6]): 5.7 ± 1.7 µM
- mean % any phene (coiled, jerky-Unc or paralyzed) (Pristionchus pacificus; [7]): 79.1667%
- mean % any phene (coiled, jerky-Unc or paralyzed) (Pristionchus pacificus; conc 15, observed at one hour): 100%
- mean % any phene (coiled, jerky-Unc or paralyzed) (Pristionchus pacificus; conc 60, observed at one hour): 100%
- EC50 (Pristionchus pacificus): 2.9 µM
- % effect (motility), DIROIM MF ([1]; 0.016 µM): 0%
- % effect (motility), DIROIM MF ([1]; 0.08 µM): 0%
- % effect (motility), DIROIM MF ([1]; 0.4 µM): 0%
- % effect (motility), DIROIM MF ([1]; 2 µM): 0%
- % effect (motility), DIROIM MF ([1]; 10 µM): 0%
- % effect (motility), DIROIM L4 ([2]; 10 µM): 0%
- % effect (motility), DIROIM L4 ([2]; 50 µM): 5%
